Test results: patent US8026359B2, “Fungicidal heterocyclic amines” (E.I. du Pont de Nemours and Company, priority 2007, dated 2011)

Legend:
Type in all cases: in vivo
[1] = test system: Uncinula necator; test: Test N: grape powdery mildew, preventive spray on grape seedlings; settings: 100 ppm (100 g/ha, 1000 L/ha), inoculated the following day, 100 = 100% disease control, 0 = no control relative to controls
Source text: (§1) General protocol for preparing test suspensions for Tests A-R: The test compounds were first dissolved in acetone in an amount equal to 3% of the final volume and then suspended at the desired concentration (in ppm) in acetone and purified water (50/50 mix) containing 250 ppm of the surfactant Trem® 014 (polyhydric alcohol esters). The resulting test suspensions were then used in tests A-R. In Tests A-M, compounds were sprayed as a 200 ppm test suspension (equivalent to a rate of 500 g/ha) or as a 40 ppm test suspension to the point of runoff on the test plants. In Tests N-R, compounds were sprayed as a 100 g/ha test suspension (equivalent to a rate of 100 ppm) on the test plants at an application volume of 1000 L/ha. The test suspension was sprayed on grape seedlings.

[2] = test system: Puccinia recondita f. sp. tritici; test: Test B: wheat leaf rust, preventive spray on wheat seedlings; settings: 200 ppm, 100 = 100% disease control, 0 = no control relative to controls; for pest or weed control at 200 ppm: Puccinia recondita, 192 h, read-out: Test B disease control rating
Outline: (§2)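 Test plants received run-off sprays of 200 ppm suspension (500 g/ha equivalent) or 40 ppm suspension. These suspensions were made by first dissolving each compound in acetone, then suspending it in an equal acetone/water mix carrying 250 ppm Trem 014.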

[3] = test system: Plasmopara viticola; test: Test R: grape downy mildew, preventive spray on grape seedlings; settings: 100 ppm (100 g/ha, 1000 L/ha), inoculated the following day, 100 = 100% disease control, 0 = no control relative to controls
Source text: as §1, with “seedlings. The following day the seedlings were inoculated with a spore suspension of Plasmopara viticola (the causal agent of grape downy mildew) and incubated in a saturated atmosphere at 20° C. for 24 h, then moved to a growth chamber at 20° C. for 7 days, after which time the test units were placed back into a saturated atmosphere at 20° C. for 24 h. Upon removal, disease ratings were made.” for “seedlings.”

[4] = test system: Septoria nodorum; test: Test C: wheat glume blotch, preventive spray on wheat seedlings; settings: 200 ppm, 100 = 100% disease control, 0 = no control relative to controls; for pest or weed control at 200 ppm: Parastagonospora nodorum, 216 h, read-out: Test C disease control rating
Outline: as §2

[5] = test system: Colletotrichum orbiculare; test: Test I: cucumber Colletotrichum anthracnose, preventive spray on cucumber seedlings; settings: 100 = 100% disease control, 0 = no control relative to controls; for pest or weed control at 200 ppm: Colletotrichum orbiculare, 144 h, read-out: Test I disease control rating; for Test I disease control rating: 200 ppm
Outline: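 Compound was dissolved in acetone (3% of final volume), then suspended in 50/50 acetone/water with 250 ppm Trem 014 surfactant. Cucumber seedlings were sprayed to run-off as a preventive treatment at 200 ppm (equivalent to 500 g/ha) or 40 ppm.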

[6] = test system: Botrytis cinerea; test: Test F: tomato Botrytis, preventive spray on tomato seedlings; settings: 200 ppm, 100 = 100% disease control, 0 = no control relative to controls; for pest or weed control at 200 ppm: Botrytis cinerea, 120 h, read-out: Test F disease control rating
Outline: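 Compounds dissolved in acetone (3% of final volume), suspended in 50/50 acetone/water with 250 ppm Trem® 014. Sprayed preventively to run-off on tomato seedlings at 200 ppm (500 g/ha) or 40 ppm.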

[7] = test system: Erysiphe graminis f. sp. tritici; test: Test A: wheat powdery mildew, preventive spray on wheat seedlings; settings: 200 ppm, 100 = 100% disease control, 0 = no control relative to controls; for pest or weed control at 200 ppm: Blumeria graminis, 192 h, read-out: Test A disease control rating
Outline: as §2

[8] = test system: Septoria tritici; test: Test D: wheat leaf blotch, preventive spray on wheat seedlings; settings: 200 ppm, 100 = 100% disease control, 0 = no control relative to controls; for pest or weed control at 200 ppm: Zymoseptoria tritici, 504 h, read-out: Test D disease control rating
Outline: as §2

[9] = test system: Fusarium graminearum; test: whole plant or invertebrate; settings: for pest or weed control at 200 ppm: Fusarium graminearum, in Triticum aestivum, 192 h, read-out: Test E disease control rating; for Test E disease control rating: 200 ppm, 100 = 100% disease control, 0 = no control relative to controls
[10] = test system: Venturia inaequalis; test: Test O: apple scab, preventive spray on apple seedlings; settings: 100 ppm (100 g/ha, 1000 L/ha), inoculated the following day, 100 = 100% disease control, 0 = no control relative to controls
Source text: as §1, with “apple” for “grape”

[11] = test system: Pythium aphanidermatum; test: Test M: bluegrass pythium blight, preventive spray on bluegrass seedlings; settings: 200 ppm; 100 = 100% disease control, 0 = no control relative to controls
Source text: as §1, with “was sprayed to the point of run-off on bluegrass” for “was sprayed on grape”, “run-off on bluegrass seedlings.” for “sprayed on grape seedlings.”

[12] = test system: Rhizoctonia oryzae; test: Test J: turf brown patch, preventive spray on creeping bent grass seedlings; settings: 200 ppm; 100 = 100% disease control, 0 = no control relative to controls
Source text: General protocol for preparing test suspensions for Tests A-R: The test compounds were first dissolved in acetone in an amount equal to 3% of the final volume and then suspended at the desired concentration (in ppm) in acetone and purified water (50/50 mix) containing 250 ppm of the surfactant Trem® 014 (polyhydric alcohol esters). The resulting test suspensions were then used in tests A-R. In Tests A-M, compounds were sprayed as a 200 ppm test suspension (equivalent to a rate of 500 g/ha) or as a 40 ppm test suspension to the point of runoff on the test plants. In Tests N-R, compounds were sprayed as a 100 g/ha test suspension (equivalent to a rate of 100 ppm) on the test plants at an application volume of 1000 L/ha. The test suspension was sprayed to the point of run-off on creeping bent grass seedlings.

[13] = test system: Phytophthora infestans; settings: 200 ppm; 100 = 100% disease control, 0 = no control relative to controls
[14] = test system: Plasmopara viticola; test: Test L: grape downy mildew, spray after inoculation of grape seedlings; settings: 200 ppm; 100 = 100% disease control, 0 = no control relative to controls
Source text: General protocol for preparing test suspensions for Tests A-R: The test compounds were first dissolved in acetone in an amount equal to 3% of the final volume and then suspended at the desired concentration (in ppm) in acetone and purified water (50/50 mix) containing 250 ppm of the surfactant Trem® 014 (polyhydric alcohol esters). The resulting test suspensions were then used in tests A-R. In Tests A-M, compounds were sprayed as a 200 ppm test suspension (equivalent to a rate of 500 g/ha) or as a 40 ppm test suspension to the point of runoff on the test plants. In Tests N-R, compounds were sprayed as a 100 g/ha test suspension (equivalent to a rate of 100 ppm) on the test plants at an application volume of 1000 L/ha. Grape seedlings were inoculated with a spore suspension of Plasmopara viticola (the causal agent of grape downy mildew) and incubated in a saturated atmosphere at 20° C. for 24 h. After a short drying period, the test suspension was sprayed to the point of run-off on the grape seedlings and then moved to a growth chamber at 20° C. for 6 days, after which time the test units were placed back into a saturated atmosphere at 20° C. for 24 h. Upon removal, disease ratings were made.

Row | SMILES | Test N disease control rating [1] [%] | pest or weed control at 200 ppm [2] [%] | Test R disease control rating [3] [%] | pest or weed control at 200 ppm [4] [%] | pest or weed control at 200 ppm [5] [%] | pest or weed control at 200 ppm [6] [%] | pest or weed control at 200 ppm [7] [%] | pest or weed control at 200 ppm [8] [%] | pest or weed control at 200 ppm [9] [%] | Test O disease control rating [10] [%] | Test B disease control rating [2] [%] | Test C disease control rating [4] [%] | Test I disease control rating [5] [%] | Test F disease control rating [6] [%] | Test D disease control rating [8] [%] | Test E disease control rating [9] [%] | Test A disease control rating [7] [%] | further results
1 | COCC(C)Nc1nccc(-c2ncnc(Nc3cccc(Cl)c3)n2)n1 (centres unmarked) [Compound 1, N-(3-chlorophenyl)-4-[2-[(2-methoxy-1-methylethyl)amino]-4-pyrimidinyl]-1,3,5-triazine-2-amine] | 90 | 96 | 26 | 100 | 99 | 98 | 76 | 0 | 98 | 78 |  |  |  |  |  |  |  | 
2 | COC[C@H](C)Nc1nccc(-c2ncnc(Nc3cccc([N+](=O)[O-])c3)n2)n1 [Compound 21] | 57 |  | 79 |  |  |  |  |  |  | 99 | 99 | 97 | 96 | 72 | 13 | 87 |  | 
3 | Fc1cccc(Nc2cc(-c3ccnc(NC4CCOCC4)n3)ccn2)c1 [Compound 67, 4-[2-[(3-fluorophenyl)amino]-4-pyridinyl]-N-(tetrahydro-2H-pyran-4-yl)-2-pyrimidinamine] | 55 | 97 | 94 | 99 | 79 | 95 | 17 | 52 | 0 | 73 |  |  |  |  |  |  |  | 
4 | Clc1cccc(Cl)c1Nc1cc(-c2ccnc(NC3CCOCC3)n2)ccn1 [Compound 81] | 97 |  | 97 |  |  |  |  |  |  | 69 | 100 | 99 | 91 | 99 | 92 | 97 | 95 | 
5 | Cc1cc(C)c(Nc2cc(-c3ccnc(NC4CCOCC4)n3)ccn2)c(Cl)c1 [Compound 90] | 98 |  | 98 |  |  |  |  |  |  |  | 99 | 100 | 93 | 99 | 47 | 100 | 98 | 
6 | Clc1cc(Cl)c(Nc2cc(-c3ccnc(NC4CCOCC4)n3)ccn2)c(Cl)c1 [Compound 99] | 30 |  | 99 |  |  |  |  |  |  | 83 | 95 | 100 | 0 | 0 | 30 | 92 | 0 | 
7 | COCC(C)Nc1cc(-c2ccnc(Nc3cccc(F)c3)n2)ncn1 (centres unmarked) [Compound 106, N^2-(3-fluorophenyl)-N^6′-(2-methoxy-1-methylethyl) [4,4′-bipyrimidine]-2,6′-diamine] |  | 94 |  | 99 | 37 | 85 | 24 | 17 | 32 |  |  |  |  |  |  |  |  | Test M disease control rating [11]: 0%; Test J disease control rating [12]: 0%; Test K disease control rating [13]: 0%; Test L disease control rating [14]: 0%
8 | COCC(C)Nc1cc(-c2ccnc(Nc3cccc([N+](=O)[O-])c3)n2)ncn1 (centres unmarked) [Compound 107, N^6′-(2-methoxy-1-methylethyl)-N^2-(3-nitrophenyl) [4,4′-bipyrimidine]-2,6′-diamine] |  | 94 |  | 100 | 72 | 28 | 0 | 8 | 89 |  |  |  |  |  |  |  |  | Test M disease control rating [11]: 0%; Test J disease control rating [12]: 0%; Test K disease control rating [13]: 0%; Test L disease control rating [14]: 0%
